According to patent US20240157020A1, “SUTURES” (The Queen's University of Belfast, priority 2021, published 2024):
Values after ≈ are worked out from the molar mass of the structure shown. Like-named read-outs stand apart in the source and are kept apart here.

Experiments:
Type in all cases: cell-based
Pseudomonas aeruginosa = test: Disc diffusion inhibition zone assay; settings: gentamicin sulphate 10 mg/mL, THEDES neat, average n = 9 ± S.D.
[1] = tested on: Staphylococcus aureus NCTC 10788; test: Disc diffusion inhibition zone assay; settings: gentamicin sulphate 10 mg/mL, THEDES neat, average n = 9 ± S.D.
Procedure: (§1) The disc diffusion assays were carried out against Staphylococcus aureus (FIG. 7, Gram-positive, frequently found in the upper respiratory tract and on the skin) and Klebsiella pneumoniae (FIG. 8, Gram-negative, facultative anaerobic, typically residing in human intestines and faeces). In general, the calculated inhibition zones of gentamicin sulphate (10 mg/mL) and the neat THEDES were very similar, confirming the antimicrobial activity of the THEDES against both gram-positive and gram-negative bacteria (Table 3).

[2] = tested on: Klebsiella pneumoniae ATCC 700603; test: Disc diffusion inhibition zone assay; settings: gentamicin sulphate 10 mg/mL, THEDES neat, average n = 9 ± S.D.
Procedure: as §1

S. aureus ATCC 29213 = test: MIC and MBC determination
Procedure: (§2) The antimicrobial activity of the THEDES was also assessed by determining the minimum inhibitory concentration (MIC) and the minimum bactericidal concentration (MBC) of MET, MA and the equimolar THEDES, respectively. Concentrations of 6 mg/mL MET, MA and MET-MA 1:1 were used to determine the MIC and MBC values against gram-positive bacteria E. faecalis, S. epidermidis and S. aureus, and gram-negative bacteria P. aeruginosa, E. coli and K. pneumoniae; results are shown in Table 4.

[3] = tested on: S. aureus NCTC 12493 (MRSA); test: MIC and MBC determination
Procedure: as §2

S. aureus NCTC 10788 = test: MIC and MBC determination
Procedure: as §2

E. coli NCTC 8196 = test: MIC and MBC determination; settings: Escherichia coli, NCTC8196
Procedure: as §2

P. aeruginosa NCTC 10783 = test: MIC and MBC determination; settings: Pseudomonas aeruginosa, NCTC10783
Procedure: as §2

P. aeruginosa ATCC 27853 = test: MIC and MBC determination; settings: Pseudomonas aeruginosa, ATCC27853
Procedure: as §2

[4] = tested on: S. epidermidis ATCC 35984; test: MIC and MBC determination; settings: Staphylococcus epidermidis, ATCC35984
Procedure: as §2

E. faecalis ATCC 29212 = test: MIC and MBC determination; settings: Enterococcus faecalis, ATCC29212
Procedure: as §2

[5] = tested on: K. pneumoniae ATCC 700603; test: MIC and MBC determination; settings: Klebsiella pneumoniae, ATCC700603
Procedure: as §2

[6] = Staphylococcus aureus, ATCC29213, S. aureus ATCC 29213
[7] = Staphylococcus aureus, S. aureus NCTC 12493 (MRSA)
[8] = Staphylococcus aureus, NCTC10788, S. aureus NCTC 10788

With gentamicin sulphate the “ZOI Diameter” value (Pseudomonas aeruginosa) was 26.04 ± 1.75 mm, the “ZOI Diameter” value [1] was 46.09 ± 1.69 mm and the “ZOI Diameter” value [2] was 24.13 ± 1.09 mm.
With `O=C(O)/C=C\C(=O)O` [MA, maleic acid] the MBC (S. aureus ATCC 29213; [6]) was > 6000 µg/mL, the MIC (S. aureus ATCC 29213; Staphylococcus aureus, ATCC29213, S. aureus ATCC 29213, read-out: MIC) was 6000 µg/mL (≈ 51.7 mM) and the MBC [3, 7] was > 6000 µg/mL. The MIC ([3]; Staphylococcus aureus, S. aureus NCTC 12493 (MRSA), read-out: MIC) was 6000 µg/mL (≈ 51.7 mM), the MBC (S. aureus NCTC 10788; [8]) was > 6000 µg/mL and the MIC (S. aureus NCTC 10788; Staphylococcus aureus, NCTC10788, S. aureus NCTC 10788, read-out: MIC) was 6000 µg/mL (≈ 51.7 mM). The MBC (E. coli NCTC 8196) was > 6000 µg/mL, the MIC (E. coli NCTC 8196) was 6000 µg/mL (≈ 51.7 mM) and the MBC (P. aeruginosa NCTC 10783) was > 6000 µg/mL. For the same compound, the MIC (P. aeruginosa NCTC 10783) was 6000 µg/mL (≈ 51.7 mM), the MBC (P. aeruginosa ATCC 27853) was > 6000 µg/mL and the MIC (P. aeruginosa ATCC 27853) was 6000 µg/mL (≈ 51.7 mM). The MBC [4] was > 6000 µg/mL, the MIC [4] was 6000 µg/mL (≈ 51.7 mM) and the MBC (E. faecalis ATCC 29212) was > 6000 µg/mL. The MIC (E. faecalis ATCC 29212) was 6000 µg/mL (≈ 51.7 mM), the MBC [5] was > 6000 µg/mL and the MIC [5] was > 6000 µg/mL.
In the case of `Cc1ncc([N+](=O)[O-])n1CCO` [MET, metronidazole], the MIC (S. aureus ATCC 29213; S. aureus ATCC 29213) is reported as 6000 µg/mL (≈ 35.1 mM), the MBC (S. aureus ATCC 29213; [6]) is reported as > 6000 µg/mL and the MIC (S. aureus ATCC 29213; Staphylococcus aureus, ATCC29213, non-methicillin-resistant S. aureus strain, read-out: MIC) is reported as 6000 µg/mL (≈ 35.1 mM). For the same compound, the MIC ([3]; S. aureus NCTC 12493 (MRSA)) was >6000 µg/mL, the MBC [3, 7] was > 6000 µg/mL and the MIC ([3]; Staphylococcus aureus, methicillin-resistant strain of S. aureus (MRSA), read-out: MIC) was > 6000 µg/mL. For the same compound, the MIC (S. aureus NCTC 10788; S. aureus NCTC 10788) was 6000 µg/mL (≈ 35.1 mM), the MBC (S. aureus NCTC 10788; [8]) was > 6000 µg/mL and the MIC (S. aureus NCTC 10788; Staphylococcus aureus, NCTC10788, non-methicillin-resistant S. aureus strain, read-out: MIC) was 6000 µg/mL (≈ 35.1 mM). The MBC (E. coli NCTC 8196) was > 6000 µg/mL, the MIC (E. coli NCTC 8196) was > 6000 µg/mL and the MBC (P. aeruginosa NCTC 10783) was > 6000 µg/mL. The MIC (P. aeruginosa NCTC 10783) was > 6000 µg/mL, the MBC (P. aeruginosa ATCC 27853) was > 6000 µg/mL and the MIC (P. aeruginosa ATCC 27853) was > 6000 µg/mL. The MBC [4] was 3000 µg/mL (≈ 17.5 mM), the MIC [4] was 3000 µg/mL (≈ 17.5 mM) and the MBC (E. faecalis ATCC 29212) was > 6000 µg/mL. The MIC (E. faecalis ATCC 29212) was > 6000 µg/mL, the MBC [5] was 6000 µg/mL (≈ 35.1 mM) and the MIC [5] was 6000 µg/mL (≈ 35.1 mM).
